Entries after “also recorded” stand apart in the source; their conditions may differ.
Columns and labels:
CD69 = CD69 upregulation on T cells after LNP transfection (FACS staining); assay type: cell-based, human; settings: approximately 24 hr after targeted Lipid 8 LNPs at approximately 2.5 μg/mL mRNA
Protocol: (§1) LNPs were prepared using the mixing process described in Example 6, the buffer exchange process described below in Example 21. Using methods similar to Example 12, hSP34 and TRX2 Fab-lipid conjugates and a non-T cell specific anti-HER2 lipid-conjugate (Nellis D F, Ekstrom D L, Kirpotin D B, Zhu J, Andersson R, Broadt T L, Ouellette T F, Perkins S C, Roach J M, Drummond D C, Hong K, Marks J D, Park J W and Giardina S L (2005) Preclinical manufacture of an anti-HER2 scFv-PEG-DSPE, liposome-inserting conjugate. 1. Gram-scale production and purification. Biotechnol Prog 21:205-220) were post-inserted at various densities (SP34 0.25-17 g/mol; TRX2 0.25-9 g/mol; SP34+TRX2 0.25-9 g/mol each conjugate; anti-HER2 17 g/mol) into LNPs containing Lipid 8 and anti-CD20 targeting CART mRNA. Transfections were performed with human CD3 T cells at approximately 2.5 μg/mL mRNA for approximately 24 hr. For FACS analysis T cells were stained with M1 antibody (Sigma, F3040) that bind a N-terminus FLAG-tag variant sequence on the TTR-023 CAR (sequence provided below) in addition to staining for CD69 (Biolegend, 310930) and CD4 (Biolegend, 344648) to differentiate CD8 from CD4 cells.
LNPs were prepared using the mixing process described in Example 6, the buffer exchange process described in Example 21. […]

human CD3 T cells = assay: Transfection of human CD3 T cells (CD8 and CD4 subsets) with Fab/Nb-targeted LNPs; assay type: cell-based; settings: targeted Lipid 8 LNP (Lipid 5 in Example 43), GFP mRNA approximately 2.5 μg/mL, approximately 24 hr
Protocol: as §1
LNPs were prepared using the mixing process described in Example 6, the buffer exchange process described in Example 21. Using methods similar to Example 12, hSP34, TRX2, and Ibalizumab Fab-lipid conjugates and a non-T cell specific anti-HER2 lipid-conjugate were post-inserted at various densities (specified in FIGS. 20A and 20B into LNPs containing Lipid 8 and Cy5/GFP mRNA. Transfections were performed with human CD3 T cells at approximately 2.5 μg/mL mRNA for approximately 24 hr and stained for CD69 (Biolegend, 310930) and CD4 (Biolegend, 344648) to differentiate CD8 from CD4 cells by FACS analysis.
LNPs were prepared using the mixing process described in Example 6, the buffer exchange process described in Example 21. […] Levels of transfection of CD3 T cells was measured by flow cytometry. […]

## Ibalizumab: anti-CD4 Fab from Ibalizumab sequence, SEQ ID NO: 10 and 11
CD69
  CD69 upregulation on CD8 and CD4 T cells, in words: much lower levels of CD69
Human CD3 T cells
  % GFP transfection and GFP expression (MFI) of CD8 and CD4 T cells, in words: higher % transfection (FIG. 71A) and GFP expression levels; also recorded: highly specific LNP transfection and protein translation of CD4+ T cells versus CD8+ T cells; also recorded: increase in transfection efficiency going from 2K PEG to 3.4K PEG; also recorded: high binding and transfection of CD4 T cells while displaying minimal off-target binding and transfection of CD8 T cells

Source: US20220218614A1, “IONIZABLE CATIONIC LIPIDS AND LIPID NANOPARTICLES, AND METHODS OF SYNTHESIS AND USE THEREOF” (Tidal Therapeutics, Inc., priority 2020, published 2022)
